{"source": "patent US5043450A", "about": "“8-alkoxyquinolonecarboxylic acid and salts thereof” (priority 1986, dated 1991)", "test_in_all_cases": "Antibacterial spectra, MIC", "assay_type_in_all_cases": "cell-based", "key": {"[1]": {"tested_on": "B. vulgatus KYA 29327", "settings": "Phocaeicola vulgatus, KYA29327; 10^6 cells/ml; Gram -; read-out: MIC"}, "[2]": {"tested_on": "F. necrophorum S-45", "settings": "Fusobacterium necrophorum, S45; 10^6 cells/ml; Gram -; read-out: MIC"}, "[3]": {"tested_on": "Peptococcus magnus KY 017", "settings": "Finegoldia magna, KY017; 10^6 cells/ml; Gram +; read-out: MIC"}, "[4]": {"tested_on": "S. aureus Smith", "settings": "Staphylococcus aureus; 10^6 cells/ml; Gram +; read-out: MIC"}, "[5]": {"tested_on": "B. distasonis 8503", "settings": "Parabacteroides distasonis, 10^6 cells/ml, Gram -, read-out: MIC"}, "[6]": {"tested_on": "B. fragilis 0558", "settings": "Bacteroides fragilis, 10^6 cells/ml, Gram -, read-out: MIC"}, "[7]": {"tested_on": "S. pyogenes IID 692", "settings": "Streptococcus pyogenes, IID692; 10^6 cells/ml; Gram +; read-out: MIC"}, "[8]": {"tested_on": "Salmonella enteritidis IID 604", "settings": "Salmonella enterica; 10^6 cells/ml; Gram -; read-out: MIC"}, "[9]": {"tested_on": "Staphylococcus aureus 209 P", "settings": "10^6 cells/ml, Gram +, read-out: MIC"}, "[10]": {"tested_on": "B. fragilis 25285", "settings": "Bacteroides fragilis, 10^6 cells/ml, Gram -, read-out: MIC"}, "[11]": {"tested_on": "K. pneumoniae 1-220S", "settings": "Klebsiella pneumoniae, 1220S; 10^6 cells/ml; Gram -; read-out: MIC"}, "[12]": {"tested_on": "Pst. micros UPI 5464-1", "settings": "Parvimonas micra, UPI54641; 10^6 cells/ml; Gram +; read-out: MIC"}, "[13]": {"tested_on": "Alcaligenes faecalis 0114002", "settings": "10^6 cells/ml, Gram -, read-out: MIC"}, "[14]": {"tested_on": "Serratia marcescens IID 618", "settings": "IID618, 10^6 cells/ml, Gram -, read-out: MIC"}, "[15]": {"tested_on": "P. maltophilia GIFU 2491", "settings": "Stenotrophomonas maltophilia, GIFU2491; 10^6 cells/ml; Gram -; read-out: MIC"}, "[16]": {"tested_on": "S. pneumoniae IID 552", "settings": "Streptococcus pneumoniae, IID552; 10^6 cells/ml; Gram +; read-out: MIC"}, "[17]": {"tested_on": "S. epidermidis IID 866", "settings": "Staphylococcus epidermidis, IID866; 10^6 cells/ml; Gram +; read-out: MIC"}, "[18]": {"tested_on": "Propionibacterium acens 11828", "settings": "10^6 cells/ml, Gram +, read-out: MIC"}, "[19]": {"tested_on": "Proteus vulgaris IFO 3167", "settings": "IFO3167, 10^6 cells/ml, Gram -", "description": "(§1) The antibacterial test was carried out according to the method designated by Japan Society of Chemotherapy."}, "[20]": {"tested_on": "Shigella sonnei IID 969", "settings": "IID969, 10^6 cells/ml, Gram -", "description": "as §1"}, "[21]": {"tested_on": "E. coli ML 4707", "settings": "Escherichia coli, ML4707; 10^6 cells/ml; Gram -", "description": "as §1"}, "[22]": {"tested_on": "E. faecalis IID 682", "settings": "Enterococcus faecalis, IID682; 10^6 cells/ml; Gram +", "description": "as §1"}, "[23]": {"tested_on": "Streptococcus pyogenes (S-8)", "settings": "10^6 cells/ml, Gram +", "description": "as §1"}, "[24]": {"tested_on": "Acinetobacter anitratus IID 876", "settings": "Acinetobacter calcoaceticus, IID876; 10^6 cells/ml; Gram -; read-out: MIC"}, "[25]": {"tested_on": "S. aureus IID 670 (Terajima)", "settings": "Staphylococcus aureus, IID670; 10^6 cells/ml; Gram +; read-out: MIC"}, "[26]": {"tested_on": "Fusobacterium mortiferum 4249", "settings": "10^6 cells/ml, Gram -, read-out: MIC"}, "[27]": {"tested_on": "Bacteroides fragilis GM 7000", "settings": "GM7000, 10^6 cells/ml, Gram -, read-out: MIC"}, "[28]": {"tested_on": "Bacilus subtilis PCI 219", "settings": "Bacillus subtilis, PCI219"}, "[29]": {"tested_on": "P. cepacia GIFU 518", "settings": "Burkholderia cepacia, GIFU518; 10^6 cells/ml; Gram -; read-out: MIC"}, "[30]": {"tested_on": "Enterobacter cloacae IID 977", "settings": "IID977, 10^6 cells/ml, Gram -, read-out: MIC"}, "[31]": {"tested_on": "B. thetaiotaomicron (0661)", "settings": "Bacteroides thetaiotaomicron; 10^6 cells/ml; Gram -; read-out: MIC"}, "[32]": {"tested_on": "Eubacterium lentum GAI 5242", "settings": "Eggerthella lenta, GAI5242"}, "[33]": {"tested_on": "Escherichia coli NIHJ JC-2", "settings": "NIHJJC2"}, "[34]": {"tested_on": "P. aeruginosa IFO 12689", "settings": "Pseudomonas aeruginosa, IFO12689; 10^6 cells/ml; Gram -; read-out: MIC"}, "[35]": {"tested_on": "F. varium KYA 8501", "settings": "Fusobacterium varium, KYA8501; 10^6 cells/ml; Gram -; read-out: MIC"}, "[36]": {"tested_on": "P. aeruginosa IID 1210", "settings": "Pseudomonas aeruginosa, IID1210; 10^6 cells/ml; Gram -; read-out: MIC"}}, "data": [{"smiles": "CCOc1c(N2CCNCC2)c(F)cc2c(=O)c(C(=O)O)cn(C3CC3)c12", "note": "[Exp. 18, 1-cyclopropyl-6-fluoro-1,4-dihydro-8-ethoxy-4-oxo-7-(1-piperazinyl)-3-quinolinecarboxylic acid]", "values": [{"measurement": "MIC", "setting": "[1]", "value": 12.5, "unit": "µg/mL"}, {"measurement": "MIC", "setting": "[2]", "value": 3.13, "unit": "µg/mL"}, {"measurement": "MIC", "setting": "[3]", "value": 0.78, "unit": "µg/mL"}, {"measurement": "MIC", "setting": "[4]", "value": 0.39, "unit": "µg/mL"}, {"measurement": "MIC", "setting": "[5]", "value": 12.5, "unit": "µg/mL"}, {"measurement": "MIC", "setting": "[6]", "value": 12.5, "unit": "µg/mL"}, {"measurement": "MIC", "setting": "[7]", "value": 3.13, "unit": "µg/mL"}, {"measurement": "MIC", "setting": "[8]", "value": 0.1, "unit": "µg/mL"}, {"measurement": "MIC", "setting": "[9]", "value": 0.2, "unit": "µg/mL"}, {"measurement": "MIC", "setting": "[10]", "value": 3.13, "unit": "µg/mL"}, {"measurement": "MIC", "setting": "[11]", "value": 0.2, "unit": "µg/mL"}, {"measurement": "MIC", "setting": "[12]", "value": 0.78, "unit": "µg/mL"}, {"measurement": "MIC", "setting": "[13]", "value": 0.78, "unit": "µg/mL"}, {"measurement": "MIC", "setting": "[14]", "value": 0.2, "unit": "µg/mL"}, {"measurement": "MIC", "setting": "[15]", "value": 0.39, "unit": "µg/mL"}, {"measurement": "MIC", "setting": "[16]", "value": 0.78, "unit": "µg/mL"}, {"measurement": "MIC", "setting": "[17]", "value": 0.39, "unit": "µg/mL"}, {"measurement": "MIC", "setting": "[18]", "value": 12.5, "unit": "µg/mL"}, {"measurement": "MIC", "setting": "[19]", "value": "≤ 0.05", "unit": "µg/mL"}, {"measurement": "MIC", "setting": "[20]", "value": "≤ 0.05", "unit": "µg/mL"}, {"measurement": "MIC", "setting": "[21]", "value": "≤ 0.05", "unit": "µg/mL"}, {"measurement": "MIC", "setting": "[22]", "value": 1.56, "unit": "µg/mL"}, {"measurement": "MIC", "setting": "[23]", "value": 1.56, "unit": "µg/mL"}, {"measurement": "MIC", "setting": "[24]", "value": 0.1, "unit": "µg/mL"}, {"measurement": "MIC", "setting": "[25]", "value": 0.39, "unit": "µg/mL"}, {"measurement": "MIC", "setting": "[26]", "value": 3.13, "unit": "µg/mL"}, {"measurement": "MIC", "setting": "[27]", "value": 3.13, "unit": "µg/mL"}, {"measurement": "MIC", "setting": "[28]", "value": "≤ 0.05", "unit": "µg/mL"}, {"measurement": "MIC", "setting": "[29]", "value": 3.13, "unit": "µg/mL"}, {"measurement": "MIC", "setting": "[30]", "value": 0.2, "unit": "µg/mL"}, {"measurement": "MIC", "setting": "[31]", "value": 12.5, "unit": "µg/mL"}, {"measurement": "MIC", "setting": "[32]", "value": 1.56, "unit": "µg/mL"}, {"measurement": "MIC", "setting": "[33]", "value": "≤ 0.05", "unit": "µg/mL"}, {"measurement": "MIC", "setting": "[34]", "value": 3.13, "unit": "µg/mL"}, {"measurement": "MIC", "setting": "[35]", "value": 25, "unit": "µg/mL"}, {"measurement": "MIC", "setting": "[36]", "value": 6.25, "unit": "µg/mL"}]}]}
